Assay [1] has as its target T1, PLCG1-C SH2 domain (Homo sapiens, UniProt P19174).
T1 construct: The 6X His-tagged SH2 domain proteins used in the assay, PLCG1-C, SHC4, VAV2; thioredoxin; made in house; host or cells: E. coli BL21(DE3)pLysS
T1 sequence (P19174 668-756 limits assumed): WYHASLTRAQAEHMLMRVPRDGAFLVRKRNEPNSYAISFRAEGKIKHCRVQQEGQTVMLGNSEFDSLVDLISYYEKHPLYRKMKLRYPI
Put plainly: biochemical. It counts as binding. Particulars: FP, PLCG1-C; mean; NA = no interaction detected.

In assay [2] the target is T1, PLCG1-C SH2 domain. Put plainly: Surface plasmon resonance (Biacore 3000). The format is binding. Particulars: SPR, NA = no interaction detected. Here is the method:
All SPR experiments were performed using Biacore 3000 (GE HealthCare, Piscataway, NJ) instrumentation. 6X His-tagged SH2 domain proteins were immobilized on a nitriloacetic acid (NTA) sensor chip (GE HealthCare, Piscataway, NJ) charged with Ni^2+ ions. Dye-free ErbB family peptides were applied to the sensor chip in a single flow cell in solution phase (while the other flow cell was used as a reference control) and binding events were measured under equilibrium conditions. FP false positive [drawing 7] (FPR), false discovery [drawing 8] (FDR), and false negative [drawing 9] (FNR) rates were calculated by defining true positives (TP) as interactions detected by both FP and SPR, true negatives (TN) as interactions detected by neither FP nor SPR; false positives as interactions identified by FP but not validated by SPR; and false negatives (FN) as interactions missed by FP but detected by SPR. Additional details for all methods are provided in the Supplementary Methods.
A randomly selected set of 12 recombinant SH2 domain proteins and unlabeled (rhodamine dye free) peptides (9 ErbB, 2 GAB1, 2 KIT, 2 MET) were generated for the surface plasmon resonance (SPR) validation study. The 6X His-tagged SH2 domain proteins used in the assay, PLCG1-C, SHC4, VAV2, TNS3, PIK3R3-C, SYK-C, PIK3R1-N, SUPT6H, CRKL, TEC, SHB, and SHC3 were produced and purified as previously described (see “SH2 and PTB domain proteins” section and Jones et al., 2006). Fresh protein stocks were generated so as to avoid bias incurred from proteins previously used in the FP assays. 13-mer peptides corresponding to ErbB1 pY801, ErbB1 pY900, ErbB1 pY978, ErbB1 pY1069, ErbB2 pY685, ErbB pY803, ErbB3 pY912, ErbB4 pY833, ErbB4 pY906, GAB1 pY183, GAB1 pY472, KIT pY570, KIT pY936, MET pY1093 and MET pY1313, were synthesized successfully for the assay using previously described approaches (see “FP competitor peptide synthesis” section). For SPR detection via the Biacore 3000 (GE HealthCare, Piscataway, NJ), His-tagged SH2 domains were immobilized on Biacore NTA sensor chips (GE HealthCare, Piscataway, NJ) pre-charged with Ni^2+ ions in one flow cell while the second served as a negative control reference cell. Peptides were introduced in solution phase to both cells and relative response units (RUs) were recorded from output sensograms. Nine concentrations of peptide and a buffer control, in duplicate, were used to determine KDs using the equilibrium method (best-fit simultaneous modeling for peptide association and disassociation curves).
(In general: Surface plasmon resonance follows binding to a sensor surface in real time, without labels.)

For the next assay, the target named is PIK3R2-N SH2 domain (Homo sapiens, UniProt O00459). Kind of assay: FP saturation binding assay.
The next assay deals with T2, PIK3R1-C SH2 domain (Homo sapiens, UniProt P27986).
T2 construct: 6X His; thioredoxin; made in house; host or cells: E. coli BL21(DE3)pLysS
Put plainly: FP saturation binding assay. To be noted: protein PIK3R1-C, high-confidence ErbB interactions, mean of replicate hits. In outline:
(§1)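 Rhodamine-labeled peptides (10 nM final) were titrated with 12 SH2 domain concentrations (0.002–10 µM) in 20 mM HEPES, 100 mM KCl, 0.1% Tween-20, 5 mM DTT, pH 7.8. After 20 min at room temperature in the dark, FP (ex 530/em 555 nm) was read. KDs came from nonlinear least-squares fits.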

In assay [3] the target is T3, PIK3R3-NC tandem SH2 domains (Homo sapiens, UniProt Q92569).
T3 construct: the tandem protein was included in our analysis with all internal amino acids linking the domains; 6X His; thioredoxin; made in house; host or cells: E. coli BL21(DE3)pLysS
Put plainly: FP saturation binding assay. To be noted: protein PIK3R3-NC; FP, high-confidence ErbB interactions; mean of replicate hits. In outline:
as §1

Assay [4] deals with T4, PIK3R1-NC tandem SH2 domains (Homo sapiens, UniProt P27986).
T4 construct: the tandem protein was included in our analysis with all internal amino acids linking the domains; 6X His; thioredoxin; made in house; host or cells: E. coli BL21(DE3)pLysS
Kind of assay: FP saturation binding assay. Particulars: protein PIK3R1-NC; FP, high-confidence ErbB interactions; mean of replicate hits. The procedure, abridged: as §1

The next assay concerns the target T5, PIK3R1-N SH2 domain (Homo sapiens, UniProt P27986).
T5 construct: thioredoxin; made in house; host or cells: E. coli BL21(DE3)pLysS
Kind of assay: biochemical. The format is binding. To be noted: protein PIK3R1-N; FP, high-confidence ErbB interactions; mean of replicate hits.

The subject of another assay is TENC1 SH2 domain. Kind of assay: FP saturation binding assay. Particulars: Tensin family SH2 domains.
In assay [5] the test system is 93 human SH2 domains and 2 phosphotyrosine binding (PTB) domains. Put plainly: FP saturation binding assay, whole domain panel (protein named per line or not at all). How it is done:
(See Figure 1A) Rhodamine-labeled peptides were dissolved in assay buffer (20 mM HEPES, 100 mM KCl, 0.1% Tween-20, 5 mM DTT, pH 7.8), diluted to a concentration of 20 nM, and plated into black 384-well plates (Corning, Corning, NY) at 5 µL/well using a Perkin Elmer EP3 pipetting workstation (V&P Scientific, Inc., San Diego, CA). SH2, PTB, and thioredoxin control proteins were plated into the first column of 2 mL 96-well plates (Corning) at a concentration of 20 µM and serially diluted 1∶2 into freezing buffer (300 mM NaCl, 50 mM Na2PO4, pH 8, 20% glycerol v/v) eleven times using a Tecan Freedom EVO 100 workstation (Tecan, Männedorf, Switzerland). For the interaction assay, 5 µL of each of the twelve protein concentrations was added to the peptide-containing 384-well plates via the EP3 resulting in a protein dilution range of 0.002–10 µM and a final volume of 10 µL; peptide concentration was fixed at 10 nM. Peptide/protein samples were incubated for 20 minutes at room temperature in the dark and fluorescence polarization (FP) was measured in an Analyst GT multimode reader (Molecular Devices, Sunnyvale, CA) with excitation and emission wavelengths of 530 nm and 555 nm, respectively. Experimental values were output as millipolarization (mP) units and imported into MATLAB (The MathWorks, Inc., Natick, MA) in which equation (1) was used to determine dissociation constants (KDs) for each protein/peptide pairing by least squares nonlinear regression. [drawing 1] (1)
To scale up the number of interaction measurements while minimizing variation introduced by human intervention, we utilized an automated robotic platform (Figure 1A; see experimental procedures and Supplementary Methods) to transfer, incubate, and measure the fluorescence polarization (FP) induced from interactions of a titration series of SH2 domains with synthetic rhodamine-labeled ErbB phosphopeptides. Experimental values were output as millipolarization (mP) units and equation (1) was used to fit apparent midpoint dissociation constants (KDs) for each protein/peptide pair using non-linear regression (see experimental procedures).
For this interaction analysis, we synthesized and queried the interaction of phosphopeptides corresponding to 89 of 92 ErbB family intracellular tyrosines with 93 SH2 domains. Because nine peptide sequences share 100% identity between the receptors in the 4 to 7 amino acids C-terminal to the phosphorylated tyrosine, our peptide set consisted of 81 phosphopeptides corresponding to the 89 unique tyrosine containing sequences (Table S2). This peptide set represents a 50% increase over the three PM studies performed to date. We were therefore able to obtain a more systematic and unbiased view of the relative SH2 domain recruitment potential of each receptor. Although most ErbB receptor auto-phosphorylation sites have been detected frequently by mass spectrometry because of their high relative modification stoichiometry, non-auto-phosphorylation sites have been reported less frequently in the literature (Table S3). We reasoned that many physiologically relevant and uncharacterized ErbB tyrosines of low phosphorylation stoichiometry may exist and that our comprehensive interaction analysis might implicate their importance in mediating physiological interactions. We tested the majority of interactions (7099/8160 (87.0%); Figure S3) three or more times and reported standard error for all interactions that were detected in at least three FP runs (Table S4). […] Analysis of this polarization data may be useful for inferring how SH2 proteins bind to different peptide sequences. Larger proteins and proteins binding closer to the N-terminal rhodamine tag of a given peptide would be expected to induce higher maximal polarization (the calculated maximal polarization value at infinite protein concentration) than proteins binding farther from the tag. In addition to phosphopeptides, we queried a representative set of 27 non-phosphopeptides against the entire domain set. […]

The next assay has as its target T6, TNS3 SH2 domain (Homo sapiens, UniProt Q68CZ2).
T6 sequence (Q68CZ2 1172-1282 limits assumed): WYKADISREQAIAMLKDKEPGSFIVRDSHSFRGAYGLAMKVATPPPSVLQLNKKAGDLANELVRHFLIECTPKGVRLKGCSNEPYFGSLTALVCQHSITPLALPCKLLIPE
Put plainly: FP saturation binding assay. To be noted: FP saturation assay; Tensin family SH2 domains.

The target in another assay is T7, TNS1 SH2 domain (Homo sapiens, UniProt Q9HBL0).
T7 sequence (Q9HBL0 1567-1676 limits assumed): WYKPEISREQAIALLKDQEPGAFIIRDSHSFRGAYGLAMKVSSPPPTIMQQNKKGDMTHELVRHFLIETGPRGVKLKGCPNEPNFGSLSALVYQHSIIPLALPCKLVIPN
Kind of assay: FP saturation binding assay. To be noted: Tensin family SH2 domains.

Another assay has as its target SH2 and PTB domains. Particulars: protein SYK-N; ref Kaushansky et al. Mol Biosys 2008; cited from earlier work. From the text:
Supplement pone.0044471.s022.xlsx, sheet "Most recent PM interactions" | column: Kd || Supplement pone.0044471.s022.xlsx, sheet "All original PM interactions" | column: Kd

By Kd is commonly meant the concentration at which binding is half-saturated.

Residues, ends and D or L forms follow the SMILES beside them.

Chain of PIK3R2-N SH2 domain (O00459 330-425 limits assumed): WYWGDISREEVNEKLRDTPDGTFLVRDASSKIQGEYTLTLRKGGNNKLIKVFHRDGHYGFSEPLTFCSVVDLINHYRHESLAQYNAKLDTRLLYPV
T2 sequence (P27986 624-718 limits assumed): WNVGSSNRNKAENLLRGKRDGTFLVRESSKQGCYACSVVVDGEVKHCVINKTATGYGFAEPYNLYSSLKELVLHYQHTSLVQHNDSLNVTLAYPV
T5 sequence (P27986 333-428 limits assumed): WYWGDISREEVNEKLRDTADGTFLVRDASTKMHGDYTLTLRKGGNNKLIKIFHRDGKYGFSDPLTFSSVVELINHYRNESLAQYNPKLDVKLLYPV
T4 sequence (P27986 333-718 limits assumed): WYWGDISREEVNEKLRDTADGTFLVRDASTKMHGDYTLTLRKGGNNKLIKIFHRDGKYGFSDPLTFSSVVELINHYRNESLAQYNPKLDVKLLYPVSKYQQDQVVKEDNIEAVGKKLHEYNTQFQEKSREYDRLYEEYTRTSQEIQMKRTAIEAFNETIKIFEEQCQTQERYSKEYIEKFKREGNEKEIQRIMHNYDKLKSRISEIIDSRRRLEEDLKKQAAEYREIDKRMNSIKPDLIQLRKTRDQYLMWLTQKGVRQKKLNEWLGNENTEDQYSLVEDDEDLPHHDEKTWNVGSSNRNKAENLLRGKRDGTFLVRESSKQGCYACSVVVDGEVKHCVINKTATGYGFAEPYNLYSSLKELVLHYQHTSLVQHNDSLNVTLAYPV

For `CC[C@H](C)[C@H](NC(=O)[C@@H](NC(=O)[C@H](CC(C)C)NC(=O)[C@H](Cc1ccc(OP(=O)(O)O)cc1)NC(=O)[C@H](CCCNC(=N)N)NC(=O)[C@H](CCC(N)=O)NC(=O)[C@@H]1CCCN1C(=O)[C@@H](N)CC(=O)O)C(C)C)C(=O)N[C@@H](CCC(N)=O)C(=O)NCC(=O)N[C@@H](CC(=O)O)C(=O)N[C@@H](CCC(=O)O)C(=O)N[C@@H](CC(=O)O)C(=O)O` [ErbB1 978] (HELM PEPTIDE1{D.P.Q.R.[O=C([C@H](Cc1ccc(OP(=O)(O)O)cc1)N[*:1])[*:2]].L.V.I.Q.G.D.E.D}$$$$V2.0), the Kd at PLCG1-C SH2 domain [1] turned out to be 1370 nM; on PLCG1-C SH2 domain [2], 430 nM.

As for `CSCC[C@H](NC(=O)CNC(=O)[C@@H](N)CCCCN)C(=O)N[C@@H](CCSC)C(=O)N[C@@H](Cc1ccc(OP(=O)(O)O)cc1)C(=O)N[C@@H](CC(C)C)C(=O)N[C@@H](CCC(=O)O)C(=O)N[C@@H](CCC(=O)O)C(=O)N[C@@H](CCCNC(=N)N)C(=O)N[C@@H](CCCNC(=N)N)C(=O)N[C@@H](CC(C)C)C(=O)N[C@H](C(=O)N[C@@H](CC(=O)O)C(=O)O)C(C)C` [ErbB4 833] (HELM PEPTIDE1{K.G.M.M.[O=C([C@H](Cc1ccc(OP(=O)(O)O)cc1)N[*:1])[*:2]].L.E.E.R.R.L.V.D}$$$$V2.0), the Kd at PLCG1-C SH2 domain [1] came to 4730 nM; at PLCG1-C SH2 domain [2], 3460 nM.

On to `CSCC[C@H](NC(=O)[C@@H]1CCCN1C(=O)[C@@H](NC(=O)[C@H](Cc1ccc(OP(=O)(O)O)cc1)NC(=O)[C@H](C)NC(=O)[C@@H]1CCCN1C(=O)[C@@H]1CCCN1C(=O)[C@@H]1CCCN1)[C@@H](C)O)C(=O)N[C@@H](CO)C(=O)NCC(=O)N[C@@H](CC(N)=O)C(=O)N[C@@H](CCC(N)=O)C(=O)N[C@@H](CC(=O)O)C(=O)O` [ErbB4 1056 13-mer] (HELM PEPTIDE1{P.P.P.A.[O=C([C@H](Cc1ccc(OP(=O)(O)O)cc1)N[*:1])[*:2]].T.P.M.S.G.N.Q.D}$$$$V2.0), for which the Kd at PIK3R2-N SH2 domain amounted to 2960 nM; at PIK3R1-C SH2 domain, 160 nM; in [3], 230 nM; in assay [4], 210 nM; on PIK3R1-N SH2 domain it was 2570 nM.

On to AKGMpYYLEEHGMd [ErbB3 pY823], for which, in the assay with TENC1 SH2 domain, the “affinity of recruitment of TENC1” value was “relatively high affinity”. Moreover, in assay [5] (KD <= 20 µM counted as interaction), the “interaction with the SH2/PTB domain panel” value was “reproducibly interacted at high affinity with many SH2 domains”. In addition, the “SH2 domains found to interact” value in assay [5] (high-confidence interactions (Table S11, Figure S14)) is “interacted with Src kinase and tensin family SH2 domains”. In addition, the “affinity of recruitment of TNS3” value on TNS3 SH2 domain is given as “relatively high affinity”. Further, the “affinity of recruitment of TNS1” value on TNS1 SH2 domain is listed as “relatively high affinity”.

Take “CLLDpYVREHKDNd [ErbB1 pY801, N-terminally rhodamine-labeled 13-mer phosphopeptide]”: in the assay with TENC1 SH2 domain, the “affinity of recruitment of TENC1” value is “relatively high affinity”. Moreover, on TNS3 SH2 domain, the “affinity of recruitment of TNS3” value is “relatively high affinity”. On TNS1 SH2 domain, the “affinity of recruitment of TNS1” value is “relatively high affinity”. Besides, the Kd on SH2 and PTB domains was 560 nM.

With LDEApYVMASVDNd [ErbB1 pY764], in the assay with TENC1 SH2 domain, the “affinity of recruitment of TENC1” value was “relatively high affinity”. For the same molecule, the “affinity of recruitment of TNS3” value on TNS3 SH2 domain is “relatively high affinity”. Besides, the “affinity of recruitment of TNS1” value on TNS1 SH2 domain is on record as “relatively high affinity”.

(Values after article PMC3433420 (PLoS ONE, 2012).)
